The results in this text go back to EPA's ToxValDB 9.5 (doi:10.2903/j.efsa.2005.25r).

Converted amounts (≈) assume the structure as drawn.

In one data set the test system is Cyprinodon variegatus. Particulars: mortality.
For another data set, the system named is Daphnia magna. Particulars: chronic/long-term; duration: 21 days; growth.
Another data set deals with Hyalella azteca. Particulars: chronic/long-term; duration: 21 days; mortality.
In a further data set the test system is Oncorhynchus mykiss. Conditions: chronic/long-term; duration: 28 days; mortality.
In another data set the test system is Apis mellifera. Conditions: acute.
For a further data set, the system named is Phasianus sp. Particulars: short-term; duration: 5 days; oral; feed; mortality.
In the next data set the test system is Coturnix coturnix. Particulars: acute; duration: 5 days; oral; diet; mortality.

Consider `CN(C)C(=O)Nc1ccc(Cl)c(Cl)c1` [Diuron], for which the LC50 with Cyprinodon variegatus (acute, duration: 96 hours) was 6.7 µg/mL (≈ 28.7 µM); with Colinus virginianus (acute, duration: 5 days, oral, diet, mortality), 346 mg/kg-day; with Phasianus sp., greater than 5000 mg/kg; in the data set on Coturnix coturnix it was greater than 5000 mg/kg; with Pontoscolex corethrurus (acute, mortality), greater than 798 mg/kg. Moreover, the NOEC with Cyprinodon variegatus (chronic/long-term, duration: 32 days) turned out to be 1.7 mg/L; in the data set with Colinus virginianus (reproduction developmental) it was 24.1 mg/kg-day; in the data set with Daphnia magna it was 0.096 mg/L; in the data set with Hyalella azteca, 0.06 mg/L; with Oncorhynchus mykiss it was 0.41 mg/L; with Pontoscolex corethrurus (chronic/long-term) it was 14.4 mg/kg. The LD50 in the data set on Colinus virginianus (acute, duration: 14 days, oral, diet, mortality) is 1100 mg/kg; in the data set with Rattus norvegicus (acute, mortality) it was 2000 mg/kg. Further, the LEL in the data set with Apis mellifera (dermal) was greater than 100 µg/piece; in the data set with Apis mellifera (oral, unspecified) it was greater than 100 µg/piece. Also, the NOAEL was determined as 80 mg/kg-day with Rattus norvegicus (chronic); 1.6 mg/kg-day in the data set with Rattus norvegicus (chronic, duration: 6 months, hematological); 0.66 mg/kg-day with Rattus norvegicus (chronic, duration: 6 months, oral, hematological). For the same molecule, the LOAEL in the data set with Rattus norvegicus (chronic, duration: 2 years, F, hematological) was 1.7 mg/kg-day.
